According to ChEMBL document CHEMBL1129616, “Synthesis and evaluation of novel thymidine analogs as antitumor and antiviral agents” (J Med Chem, 1996):

Tested on: SV-28
Experiment: Compound was tested for its effect on (target DNA or RNA) cell plating efficiency at 25 uM after a 24 hr exposure (the SV-28 cell has a plating efficiency between 50 and 60%)
Assay type: functional, Cricetulus griseus

CCCCCCCCCCCCCCCC(=O)CC[N+](C)(C)CCOCn1cc(C)c(=O)[nH]c1=O.[I-]
Cell plating efficiency: 47%
